# Biological target: Tyrosine-protein kinase JAK1 (Homo sapiens, UniProt P23458)
# Assay: ADP-Glo Kinase Assay: A control material and a test material were prepared for each concentration, in such a way that they were diluted by means of DMSO. At the same time, ATP (250 uM) and JAK substrate (JAK1, IRS-itide 40 ng/mL) were prepared, in such a way that they were diluted by means of kinase buffer (40 mM Tris-HCl pH 7.5, 20 mM MgCl2, 0.5 mg/mL BSA, 50 uM DTT).A test drug for each concentration, substrate, ATP and JAK enzyme were mixed in an eppendorf tube, and reacted in a 30° C. incubator for 40 minutes.ADP-Glo™ reagent contained in ADP-Glo™ Kinase Enzyme System (Promega, USA, V9571) was added into each eppendorf tube, and reacted in a 30° C. incubator for 40 minutes. A kinase detection reagent contained in ADP-Go™ Kinase Enzyme System was inserted into the eppendorf tube, then an integration time was set to 1 second by using Wallac Victor 2™, then luminescence was measured, and then JAKs phosphorylation inhibition ability of the test material was analyzed. The concentration of the compound, which causes 50% of the JAK enzyme activity inhibition in comparison With the control group, was determined as IC50 (nM) of an inhibitor, wherein the results thereof are shown in a following table 1.
# Sequence of Tyrosine-protein kinase JAK1 (P23458 whole entry): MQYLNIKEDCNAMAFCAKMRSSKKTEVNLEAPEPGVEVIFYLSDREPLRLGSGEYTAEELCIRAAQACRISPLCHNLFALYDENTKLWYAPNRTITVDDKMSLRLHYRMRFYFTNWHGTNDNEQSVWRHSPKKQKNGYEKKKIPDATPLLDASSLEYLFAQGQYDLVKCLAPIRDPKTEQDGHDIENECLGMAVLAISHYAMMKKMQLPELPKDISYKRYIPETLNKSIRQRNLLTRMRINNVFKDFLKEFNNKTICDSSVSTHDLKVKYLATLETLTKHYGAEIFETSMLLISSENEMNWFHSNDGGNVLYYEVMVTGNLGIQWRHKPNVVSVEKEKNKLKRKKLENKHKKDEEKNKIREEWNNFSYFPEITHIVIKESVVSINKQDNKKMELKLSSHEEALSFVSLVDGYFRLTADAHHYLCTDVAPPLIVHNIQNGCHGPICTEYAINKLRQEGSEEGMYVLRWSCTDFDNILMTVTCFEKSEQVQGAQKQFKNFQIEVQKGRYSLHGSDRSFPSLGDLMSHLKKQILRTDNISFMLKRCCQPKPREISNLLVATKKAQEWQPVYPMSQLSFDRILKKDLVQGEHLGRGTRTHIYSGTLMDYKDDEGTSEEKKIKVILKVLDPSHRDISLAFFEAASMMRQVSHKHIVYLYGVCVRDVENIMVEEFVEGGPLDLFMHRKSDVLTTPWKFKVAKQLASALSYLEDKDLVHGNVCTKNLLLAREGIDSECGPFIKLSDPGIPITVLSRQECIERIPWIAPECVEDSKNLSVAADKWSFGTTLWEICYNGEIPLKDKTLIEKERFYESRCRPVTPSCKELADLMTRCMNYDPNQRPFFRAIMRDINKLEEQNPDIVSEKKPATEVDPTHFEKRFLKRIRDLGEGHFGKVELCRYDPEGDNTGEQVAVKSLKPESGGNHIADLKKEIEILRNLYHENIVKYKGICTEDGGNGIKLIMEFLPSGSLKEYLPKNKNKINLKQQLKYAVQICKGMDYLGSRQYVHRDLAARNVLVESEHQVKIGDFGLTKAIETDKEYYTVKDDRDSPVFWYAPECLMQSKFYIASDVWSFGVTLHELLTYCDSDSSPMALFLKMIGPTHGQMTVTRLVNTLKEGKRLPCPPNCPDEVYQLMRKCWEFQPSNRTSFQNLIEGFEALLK
row,Compound,IC50 [nM]
1,O=C(Nc1cc(-c2ccc(CC(=O)N3CCN(S(=O)(=O)C(F)(F)F)CC3)cc2)c2cc[nH]c2n1)C1CC1,> 200
2,CC1CN(C(=O)c2cc(Cl)ncc2Cl)CC=C1c1cc(NC(=O)C2CC2)nc2[nH]ccc12 (centres undefined),> 200
3,CCS(=O)(=O)Nc1ccc(-c2cc(NC(=O)C3CCCC3)nc3[nH]ccc23)cc1F,> 200
4,CCS(=O)(=O)Nc1ccc(-c2cc(NC(=O)Cc3ccccc3)nc3[nH]ccc23)cc1F,> 200
5,O=C(Nc1ccc(F)cc1)Nc1ccc(-c2cc(NC(=O)C3CC3)nc3[nH]ccc23)cc1,> 200
6,CCC(=O)Nc1cc(-c2ccc(NS(=O)(=O)CC)c(F)c2)c2cc[nH]c2n1,> 200
7,O=C(Nc1cc(C2=CCN(C(=O)CBr)CC2)c2cc[nH]c2n1)C1CC1,> 200
8,CC1CN(C(=O)c2cc(Cl)cc(Cl)c2O)CC=C1c1cc(NC(=O)C2CC2)nc2[nH]ccc12 (centres undefined),> 200
9,CCS(=O)(=O)Nc1ccc(-c2cc(NC(=O)C3CCCCC3)nc3[nH]ccc23)cc1F,> 200

# — ChEMBL document CHEMBL5729474, “Heterocyclic compound as a protein kinase inhibitor” (2022)
